Source: US8686045B2 (priority 2005, dated 2014)
“Also recorded” adds a separate entry of the source. Where a SMILES comes first, the peptide text is derived from it. [ ]: non-standard residue; d: D form. pGlu = O=C1CC[CH](C(=O)O)N1

Tests used:
[1] = tested on: E16 mouse hippocampal neurons; experiment: Hippocampal neuron survival (morphology plus MTT conversion, 48 h); format: cell-based; conditions: for EC50 / Emax: Mus musculus, Hippocampal neuron, 48 h; for EC50: read-out: EC50 of neuron survival dose-response; for Emax: read-out: intrinsic activity
Description: FIGS. 3A-3E are a series of neuron survival dose response curves of BDNF (FIG. 3A), Compound 1 (also referred to as BD2-1, FIG. 3B) Compound 2 (also referred to as BD2-2, FIG. 3C), Compound 3 (also referred to as BD2-3, FIG. 3D), and Compound 4 (also referred to as BD2-4, FIG. 3E) using Mouse E16 hippocampal neurons. Survival was determined as the total number of cells in each well that were both morphologically intact and filled with blue formazan MTT conversion product (Longo, F. M., Manthorpe, M. Xie, Y. M., and Varon, S. (1997) J Neurosci Res. 48, 1-17). Counts were normalized to survival achieved with 25 ng/mL BDNF. Survival was assessed at 48 hrs.
Hippocampal neurons were prepared from E16-17 mouse embryos as previously described (Yang, T. et al. (2003) J Neurosci 23, 3353-3363). Low density cultures were initiated in poly-L-lysine coated A/2 plates by adding 25 μl of cell suspension (2000 neurons/well; 12,500 cells/cm^2), 25 μl of DMEM containing 10% FBS, and different concentrations of recombinant BDNF, NGF, or TrkB-binding compounds to each well.
After 48 hours in culture, cell survival was assessed as previously described (Longo, F. M., Manthorpe, M., Xie, Y. M., Varon, S. (1997) J Neurosci Res 48, 1-17) using a combination of standard morphological criteria along with visual determination of whether a given cell converted MTT to its blue formazan product. Briefly, the number of surviving neurons was determined by counting the total number of cells in each well that were both morphologically intact and filed with blue product (Longo F. M., Manthorpe. M., Xie, Y. M. Varon, S. (1997) J Neurosci Res 48, 1-17). For each neurotrophin or compound concentration, duplicate wells were counted and the resulting values averaged. […] Counts were normalized to survival achieved with 25 ng/ml BDNF or to baseline survival. Fitting of dose-responsive curves was performed with SIGMAPLOT™ obtained from SYSTAT Software Inc. (Richmond, Calif., United States of America).
In order to understand the mechanisms of action of the BDNF loop 2 mimetics and to test the conjecture that they work via the targeted receptor, TrkB, the dose-dependent relationships of the survival-promoting activities of the mimetics was compared to BDNF using embryonic hippocampal neurons in culture conditions in which BDNF promotes neural survival. In the cultures, neurotrophic activity was mediated by BDNF principally through TrkB and p75^NTR, as they express little TrkA (Brann, A. B., et al. (1999) J Neurosci 19, 8199-8206; Bui, N. T., et al. (2002) J Neurochem 81, 594-605).

TrkB = biological target: T1, TrkB (Homo sapiens, UniProt Q16620); experiment: Trk phosphorylation at Y490, Western blot, NIH3T3 cells expressing TrkB; format: cell-based
T1 construct: expressed in transfected cells; host or cells: NIH3T3
T1 sequence (Q16620 32-822, species assumed): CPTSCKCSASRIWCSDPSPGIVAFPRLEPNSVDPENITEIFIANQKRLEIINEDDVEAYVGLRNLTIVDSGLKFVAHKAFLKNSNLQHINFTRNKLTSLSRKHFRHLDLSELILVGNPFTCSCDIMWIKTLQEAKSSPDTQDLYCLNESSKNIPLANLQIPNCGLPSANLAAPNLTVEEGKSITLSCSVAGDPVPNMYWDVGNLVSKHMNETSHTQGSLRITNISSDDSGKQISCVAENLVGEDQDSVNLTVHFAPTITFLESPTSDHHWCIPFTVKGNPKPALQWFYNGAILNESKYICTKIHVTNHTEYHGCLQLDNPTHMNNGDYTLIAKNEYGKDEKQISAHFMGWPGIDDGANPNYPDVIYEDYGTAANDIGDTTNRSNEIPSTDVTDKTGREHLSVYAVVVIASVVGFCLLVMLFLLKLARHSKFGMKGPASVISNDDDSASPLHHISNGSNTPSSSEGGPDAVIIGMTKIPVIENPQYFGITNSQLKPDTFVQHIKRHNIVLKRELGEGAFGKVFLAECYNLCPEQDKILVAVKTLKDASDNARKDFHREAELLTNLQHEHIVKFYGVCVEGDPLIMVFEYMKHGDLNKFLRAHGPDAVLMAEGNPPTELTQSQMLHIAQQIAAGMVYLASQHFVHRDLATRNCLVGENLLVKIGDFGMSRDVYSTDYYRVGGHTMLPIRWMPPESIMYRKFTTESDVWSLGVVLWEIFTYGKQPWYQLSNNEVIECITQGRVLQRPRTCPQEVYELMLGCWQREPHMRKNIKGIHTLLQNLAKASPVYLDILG
Description: (§1) CM represents culture medium.
(§2) Western blots were performed as described previously (Yang, T. et al. (2003) J Neurosci 23, 3353-3363). Western blot signals were detected using the ECL Chemiluminescence System obtained by Amersham (Piscataway, N.J., United States of America) (Yang, T. et al. (2003) J Neurosci 23, 3353-3363). To detect the presence of anti-Trk antibodies, blots were probed with horseradish peroxidase-linked goat anti-rabbit IgG obtained from Amersham/Pharmacia Biotech (Piscataway, N.J., United States of America). Signals were detected by the ECL chemiluminescence system obtained from Amersham Biosciences (Piscataway, N.J., United States of America). To control for variation in protein loading, the blot was stripped and reprobed with β-actin monoclonal antibody obtained from Sigma (St. Louis, Mo., United States of America).
(§3) In order to assess the interactions of the BDNF loop 2 mimetic compounds with TrkB receptors, the ability of Compound 4 to activate TrkA, TrkB, and TrkC was compared in a series of Western blotting experiments.
(§4) In the bottom two panels of FIG. 5A, NIH3T3 cells expressing TrkA were used.

TrkA = biological target: T2, TrkA (Homo sapiens, UniProt P04629); experiment: Trk phosphorylation at Y490, Western blot, NIH3T3 cells expressing TrkA; format: cell-based
T2 construct: expressed in transfected cells; host or cells: NIH3T3
T2 sequence (P04629 33-796, species assumed): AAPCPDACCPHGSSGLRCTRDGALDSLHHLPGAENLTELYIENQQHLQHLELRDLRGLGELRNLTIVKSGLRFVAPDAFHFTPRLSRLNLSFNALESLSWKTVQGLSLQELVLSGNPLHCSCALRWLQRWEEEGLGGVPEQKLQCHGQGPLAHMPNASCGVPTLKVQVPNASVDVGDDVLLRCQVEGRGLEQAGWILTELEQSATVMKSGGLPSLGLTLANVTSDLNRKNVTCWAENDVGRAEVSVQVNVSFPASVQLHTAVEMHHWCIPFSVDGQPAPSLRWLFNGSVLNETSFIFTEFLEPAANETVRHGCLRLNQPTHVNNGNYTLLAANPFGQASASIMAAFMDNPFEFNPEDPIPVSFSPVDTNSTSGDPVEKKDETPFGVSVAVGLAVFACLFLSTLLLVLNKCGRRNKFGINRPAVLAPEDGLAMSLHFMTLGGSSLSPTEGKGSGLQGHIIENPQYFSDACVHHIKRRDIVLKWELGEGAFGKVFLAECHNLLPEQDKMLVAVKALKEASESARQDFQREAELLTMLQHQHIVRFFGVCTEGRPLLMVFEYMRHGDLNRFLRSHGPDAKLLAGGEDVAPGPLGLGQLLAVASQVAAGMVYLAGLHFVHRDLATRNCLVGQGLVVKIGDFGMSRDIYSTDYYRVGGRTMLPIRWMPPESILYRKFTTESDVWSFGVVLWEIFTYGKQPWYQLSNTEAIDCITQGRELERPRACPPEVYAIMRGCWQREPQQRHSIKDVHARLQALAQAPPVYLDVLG
Description: as §1, §2, §3, §4

[2] = tested on: E16 mouse hippocampal neurons; experiment: Hippocampal neuron survival (morphology plus MTT conversion, 48 h); format: cell-based; conditions: in the presence of a maximally effective BDNF concentration (50 ng/mL)
[3] = tested on: E16-17 hippocampal neurons; experiment: Aβ oligomer-induced neuronal degeneration (Alzheimer's disease model); format: cell-based, mouse
Description: Neuronal cell survival in culture medium (CM) and with the addition of 10 μM AβScrambled oligomer are shown in the two bars on the left-hand side of the graph […]. Cells were also treated with 10 μM Aβ1-42 alone or in combination with NGF (100 ng/mL), NGF mimetic LM11A-31 (100 nM), a combination of NGF and LM11A-31, Compound 4 (BD2-4, 500 nM), Compound 24 (BD2-24, 500 nM), or either 20 or 100 ng/mL BDNF, as indicated under each bar. […] Mean+SE are shown and ***p<0.001 for survival above CM baseline.
The ability of the BDNF mimetics to prevent Aβ-induced neuronal degeneration was tested as a model of the compounds' ability to treat Alzheimer's disease. E16-17 hippocampal neurons were matured for 6 days and then incubated for 3 days with the indicated combinations of Aβ oligomer preparations (Dahigren, K. N., et al. (2002) J Biol Chem 277, 32046-32053), neurotrophins and neurotrophin mimetics. Following the three day incubation, neuronal survival was assessed using standard morphological criteria (Massa, S. M., et al. (2006) J Neurosci 26, 5288-5300.).

[4] = tested on: human SH-SY5Y neuroblastoma cells
Excerpt: Exposure of SH-SY5Y cells to 1-methyl-4-phenylpyridinium (MPP^+) with resulting cell death is a well-characterized model of Parkinson's disease (PD). […] BDNF has also been previously shown to protect dopaminergic neurons. Further, MPP^+ causes a PD-like condition in primates.
For the Parkinson's disease model assays, human SH-SY5Y cells were used after terminal differentiation into a dopaminergic phenotype (Presgraves. S. P., et al. (2004) Exp Neruol 190, 157-170). Human SH-SY5Y neuroblastoma cells were propagated to confluence in Dulbecco's Modified Eagle's media (DMEM) supplemented with 10% fetal calf serum, 100 μg/mL penicillin, 100 μg/mL streptomycin, 0.25 μg/mL amphotericin B, and […] non-essential amino acids and then sub-cultured for differentiation. For differentiation, the cells were incubated in same media containing 10 μM retinoic acid for 3 days; then the media was removed and replaced with media containing 160 nM of the phorbol ester 12-O-tetradecanoyl-phorbol-13-acetate (TPA) for 3 days of differentiation. The cells were then administered a range dose of BD2-4 or BDNF (1×10^−12 M to […]) in DMEM for 30 mins for three days prior to addition of 100 μM MPP^+. Following transfer of MPP^+ to the media, sister cultures were tested at 6, 12, 24, and 48 hrs for the cytotoxicity of MPP^+ as measured by the MTT and lactate dehydrogenase method (LDH) assays which accurately measure different aspects of cell death. In addition, the neuroprotective effects of a fixed dose of BD2-4 and BDNF on MPP^+ induced cell death were tested for in the presence and absence of TrkB inhibitor K252a (200 nM).

TrkC = biological target: T3, TrkC (Homo sapiens, UniProt Q16288); experiment: Trk phosphorylation at Y490, Western blot, NIH3T3 cells expressing TrkC; format: cell-based
T3 construct: expressed in transfected cells; host or cells: NIH3T3
T3 sequence (Q16288 32-839, species assumed): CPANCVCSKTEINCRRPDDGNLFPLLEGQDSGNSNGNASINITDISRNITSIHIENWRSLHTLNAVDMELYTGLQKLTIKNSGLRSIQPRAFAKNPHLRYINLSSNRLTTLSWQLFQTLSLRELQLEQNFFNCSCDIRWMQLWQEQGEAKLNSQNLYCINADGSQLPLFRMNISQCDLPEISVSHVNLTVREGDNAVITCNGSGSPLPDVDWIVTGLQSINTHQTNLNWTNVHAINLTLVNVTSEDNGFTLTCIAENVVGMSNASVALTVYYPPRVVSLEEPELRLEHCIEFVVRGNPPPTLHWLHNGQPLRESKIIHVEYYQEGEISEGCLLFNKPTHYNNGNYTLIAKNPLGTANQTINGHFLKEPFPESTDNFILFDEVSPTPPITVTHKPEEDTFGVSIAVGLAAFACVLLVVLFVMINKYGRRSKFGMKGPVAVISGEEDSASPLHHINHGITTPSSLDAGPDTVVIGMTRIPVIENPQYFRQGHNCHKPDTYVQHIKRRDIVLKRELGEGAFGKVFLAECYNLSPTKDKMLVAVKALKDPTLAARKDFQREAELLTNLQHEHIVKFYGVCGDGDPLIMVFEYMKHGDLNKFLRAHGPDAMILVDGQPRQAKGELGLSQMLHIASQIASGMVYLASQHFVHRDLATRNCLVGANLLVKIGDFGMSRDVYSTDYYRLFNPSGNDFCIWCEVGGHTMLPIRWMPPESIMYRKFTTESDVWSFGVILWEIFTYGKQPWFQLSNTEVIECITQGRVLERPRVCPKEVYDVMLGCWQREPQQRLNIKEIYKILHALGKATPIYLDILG
Description: FIG. 5B is a digital composite image of Western blots monitoring TrkC activation as indicated by promotion of Trk phosphorylation at Y490 in NIH3T3 cells expressing TrkC. […] CM represents culture medium.
as §2, §3
In FIG. 5B, NIH3T3 cells expressing TrkC were used. The bottom panel indicates the total amount of TrkC present by probing with anti-TrkC antibodies.

DARP32-positive neurons = experiment: Quinolinic acid-induced death, DARP32-positive neurons only; format: cell-based, mouse
Description: FIG. 6C is a bar graph of the results of a study similar to that described for FIG. 6B only using Darp32-positive neurons.
A study similar to the one shown in FIG. 6B was conducted in which only DARP32-positive neurons were assessed. DARP32-positive neurons represent the population within the striatum that are particularly vulnerable in HD.

[5] = tested on: mouse E16 striatal neurons
Description: Bars indicate mean±s.e.m.
CM represents culture medium and QUIN represents quinolinic acid. Bars indicate mean±s.e.m and *** indicates p<0.005 student t test.
The K252a inhibitor is a well-characterized inhibitor of TrkB receptor activation.

SMILES: COC(=O)C(Cc1c[nH]c2ccccc12)NC(=O)C(Cc1c[nH]cn1)NC(=O)C1CCC(=O)N1 (stereo not drawn) [Compound 1] ([pGlu]-His-Trp-OMe; configuration not given here)
- EC50 [1]: 100 to 1000 pM
- Emax [1]: 50 to 200%

SMILES: NC(=O)NN=C1c2cc(S(=O)(=O)NCCO)ccc2-c2ccc(S(=O)(=O)NCCO)cc21 [Compound 2]
- EC50 [1]: 100 to 1000 pM
- Emax [1]: 50 to 200%

SMILES: CC(=O)Nc1ccc(/C=C(\C#N)c2nn(CCO)c(N)c2C#N)cc1 [Compound 3]
- EC50 [1]: 100 to 1000 pM
- Emax [1]: 50 to 200%

SMILES: O=C(NCCO)c1cc(C(=O)NCCO)cc(C(=O)NCCO)c1 [Compound 4]
- TrkB activation (Trk phosphorylation at Y490) (TrkB): activate TrkB
- TrkA activation (Trk phosphorylation at Y490) (TrkA): not TrkA; also recorded: do not
- effect on BDNF activity (partial agonism) [2]: partial agonist of BDNF; also recorded: causes an inhibition of BDNF activity
- blocking of Aβ-induced degeneration [3]: as effective as BDNF in blocking Aβ-induced degeneration
- block of death-inducing activity of MPP+ ([4]; MPP+ 100 μM): significantly blocked to a similar extent
- TrkC activation (Trk phosphorylation at Y490) (TrkC): do not activate TrkC
- prevention of death of hippocampal neurons / neurotrophic effect ([1]; E16 hippocampal neurons): neurotrophic effects similar to that of BDNF; also recorded: prevents the death of E16 hippocampal neurons
- EC50 [1]: 100 to 1000 pM
- Emax [1]: 50 to 200%
- protection of DARP32-positive neurons (DARP32-positive neurons; quinolinic acid-induced death): protects DARP32-positive neurons with an efficacy similar to that of BDNF

SMILES: COc1ccc(-c2csc(N/N=C/c3ccc(O)cc3O)n2)cc1 [Compound 24]
- blocking of Aβ-induced degeneration [3]: as effective as BDNF in blocking Aβ-induced degeneration

SMILES: COC(=O)[C@@]1(O)C[C@H]2O[C@]1(C)n1c3ccccc3c3c4c(c5c6ccccc6n2c5c31)C(=O)NC4 [Compound K252a]
- effect of K252a on quinolinic acid-induced death ([5]; K252a without BDNF or BD2-4): no effect on quinolinic acid-induced death
- effect of K252a on prevention of death by BDNF and BD2-4 ([5]; quinolinic acid-treated striatal neurons): block the ability of BDNF and BD2-4 to prevent death
- effect on cell survival, inhibitor alone ([4]; K252a (200 nM) versus culture medium alone): small effect on lowering cell survival
- effect of K252a on prevention of cell death by BDNF and BD2-4 (DARP32-positive neurons; DARP32-positive neurons): decreased the ability of BDNF and BD2-4 to prevent cell death

SMILES: CC[C@H](C)[C@H](N)C(=O)NCCN1CCOCC1 [LM11A-31, reference compound]
- blocking of Aβ-induced degeneration [3]: blocked Aβ-induced degeneration
- blocking activity in combination with NGF ([3]; LM11A-31 100 nM plus NGF 100 ng/mL, 10 μM Aβ1-42): blocked by NGF

SMILES: C[n+]1ccc(-c2ccccc2)cc1 [MPP^+, 1-methyl-4-phenylpyridinium]
- cell death, toxin alone ([4]; MPP+ 100 μM): promotes death of essentially all cells

SMILES: O=C(O)c1cccnc1C(=O)O [quinolinic acid]
- death of neurons ([5]; quinolinic acid at 7.5 mM versus culture medium alone): approximately 50%
